Data taken from DBAASP.
Values after ≈ are worked out from the molar mass of the structure shown. Values joined by “and” are separate entries in the source; they are usually repeats but may differ in a detail not shown here. Equal values may be shown once.

Experiments:
Assay in all cases: ≥ marks a high value that may be exact or a test limit, other limits are often not marked, values filed in µg/mL are converted to µM
[1] = test system: Escherichia coli ATCC 25922
Escherichia coli = test system: Escherichia coli
[2] = test system: Pseudomonas aeruginosa PA14
[3] = test system: Pseudomonas aeruginosa PAO1
Klebsiella pneumoniae = test system: Klebsiella pneumoniae
[4] = test system: Pseudomonas aeruginosa ATCC 27853
Staphylococcus aureus = test system: Staphylococcus aureus
[5] = test system: Escherichia coli ATCC 8739
[6] = test system: Staphylococcus aureus ATCC 25923
[7] = test system: Enterococcus faecalis ATCC 29212
Escherichia coli UB1005 = test system: Escherichia coli UB1005
[8] = test system: Salmonella enterica subsp. enterica serovar Typhimurium ATCC 14028s
[9] = test system: Pseudomonas aeruginosa K799
[10] = test system: Staphylococcus epidermidis C621
[11] = test system: Candida albicans ATCC 10231
Aureobasidium pullulans = test system: Aureobasidium pullulans
[12] = test system: Corynebacterium glutamicum ATCC 13032
[13] = test system: Staphylococcus aureus ATCC 9144
[14] = test system: Salmonella typhimurium KCTC 1926
[15] = test system: Acinetobacter baumannii CCARM 12035
[16] = test system: Staphylococcus aureus CCARM 3126
[17] = test system: Escherichia coli KCTC 1682
[18] = test system: Bacillus subtilis KCTC 3068
[19] = test system: Pseudomonas aeruginosa CCARM 2002
[20] = test system: Salmonella typhimurium CCARM 8007
[21] = test system: Pseudomonas aeruginosa KCTC 2004
[22] = test system: Staphylococcus epidermidis KCTC 1917
[23] = test system: Staphylococcus aureus KCTC 1621
[24] = test system: Escherichia coli CCARM 1229
[25] = test system: Acinetobacter baumannii KCTC 2508
[26] = test system: Klebsiella pneumoniae ATCC BAA-2146
Acinetobacter baumannii = test system: Acinetobacter baumannii
[27] = test system: Bacillus subtilis ATCC 6051
[28] = test system: Cryptococcus neoformans ATCC 208821
[29] = test system: Acinetobacter baumannii ATCC 19606
Pseudomonas aeruginosa = test system: Pseudomonas aeruginosa
[30] = test system: Staphylococcus aureus ATCC 43300
[31] = test system: Klebsiella pneumoniae ATCC 700603
[32] = test system: Candida albicans ATCC 90028
[33] = test system: Klebsiella pneumoniae ATCC 13883
[34] = test system: Mycobacterium tuberculosis H37Rv

CC[C@H](C)[C@H](NC(=O)[C@H](CCCCN)NC(=O)[C@H](CC(C)C)NC(=O)[C@H](CCCN=C(N)N)NC(=O)[C@H](CC(C)C)NC(=O)[C@H](CCCCN)NC(=O)[C@H](CCCCN)NC(=O)[C@H](CC(C)C)NC(=O)[C@H](CC(C)C)NC(=O)[C@H](CCCCN)NC(=O)[C@H](CCCCN)NC(=O)[C@H](CC(N)=O)NC(=O)[C@H](CCCN=C(N)N)NC(=O)[C@H](C)NC(=O)[C@H](CCSC)NC(=O)[C@@H]1CCCN1)C(=O)N[C@@H](C)C(=O)N[C@@H](Cc1ccccc1)C(=O)N[C@@H](CCCCN)C(=O)O [PMARNKKLLKKLRLKIAFK]
MIC [1]: 8 µM (≈ 18.4 µg/mL) | MIC (Escherichia coli): 8 µM (≈ 18.4 µg/mL) | MIC [2]: 8 µM (≈ 18.4 µg/mL) | MIC [3]: 8 µM (≈ 18.4 µg/mL) | MIC (Klebsiella pneumoniae): 16 µM (≈ 36.8 µg/mL) | MIC [4]: 16 µM (≈ 36.8 µg/mL) | MIC (Staphylococcus aureus): > 64 µM | MIC [5]: 8 µM and 6.97 µM | MIC [6]: 64 µM and 55.7 µM

CC[C@H](C)[C@H](NC(=O)[C@@H]1CSSC[C@H](NC(=O)[C@@H](NC(=O)[C@@H](N)CCCN=C(N)N)[C@@H](C)CC)C(=O)N[C@@H](CCCN=C(N)N)C(=O)N[C@@H]([C@@H](C)CC)C(=O)N[C@@H](C(C)C)C(=O)N[C@@H](C(C)C)C(=O)N[C@@H]([C@@H](C)CC)C(=O)N[C@@H](CCCN=C(N)N)C(=O)N1)C(=O)N[C@@H](CCCN=C(N)N)C(N)=O [RICRIVVIRCIR]
MIC [7]: > 21.3 µM | MIC (Escherichia coli UB1005): 2.67 µM (≈ 3.99 µg/mL) | MIC [8]: 5.33 µM (≈ 7.98 µg/mL) | MIC [6]: 21.3 µM (≈ 31.9 µg/mL) | MIC [9]: 10.7 µM (≈ 16 µg/mL) | MIC [10]: 5.33 µM (≈ 7.98 µg/mL)

CC(C)[C@H](NC(=O)[C@H](CCCCN)NC(=O)[C@H](C)NC(=O)[C@@H](NC(=O)[C@@H](NC(=O)[C@H](CCCN=C(N)N)NC(=O)[C@H](CCCN=C(N)N)NC(=O)[C@H](Cc1c[nH]c2ccccc12)NC(=O)[C@@H](N)Cc1c[nH]c2ccccc12)[C@@H](C)O)C(C)C)C(=O)N[C@@H](CCCN=C(N)N)C(=O)N[C@@H](CC(N)=O)C(=O)N[C@@H](C)C(=O)NCC(=O)N[C@@H](CCCN=C(N)N)C(=O)N[C@@H](CCCCN)C(N)=O [WWRRTVAKVRNAGRK]
MIC [1]: 6.3 µM (≈ 11.9 µg/mL) | MIC [11]: 100 µM (≈ 188 µg/mL) | MIC (Aureobasidium pullulans): ≥ 100 µM | MIC [12]: 0.4 µM (≈ 0.753 µg/mL) | MIC [4]: 25 µM (≈ 47.1 µg/mL) | MIC [13]: 12.5 µM (≈ 23.5 µg/mL)

CC[C@H](C)[C@H](NC(=O)[C@H](CCCCN)NC(=O)[C@H](CCCCN)NC(=O)[C@H](Cc1ccccc1)NC(=O)[C@@H](NC(=O)[C@H](CCCCN)NC(=O)[C@H](Cc1c[nH]c2ccccc12)NC(=O)[C@@H](N)CCCN=C(N)N)[C@@H](C)CC)C(=O)N[C@@H](CCC(=O)O)C(=O)N[C@@H](CCCCN)C(=O)N[C@H](C(=O)NCC(N)=O)C(C)C [RWKIFKKIEKVG]
MIC [14]: ≥ 64 µM | MIC [15]: 16 µM (≈ 24.5 µg/mL) | MIC [16]: ≥ 64 µM | MIC [17]: 16 µM (≈ 24.5 µg/mL) | MIC [18]: ≥ 64 µM | MIC [19]: 16 µM (≈ 24.5 µg/mL) | MIC [20]: ≥ 32 µM | MIC [21]: 8 µM (≈ 12.2 µg/mL) | MIC [22]: ≥ 64 µM | MIC [23]: 16 µM (≈ 24.5 µg/mL) | MIC [24]: ≥ 64 µM | MIC [25]: ≥ 64 µM

CC[C@H](C)[C@H](NC(=O)[C@H](CCCCN)NC(=O)[C@H](Cc1c[nH]c2ccccc12)NC(=O)[C@@H](N)CCCN=C(N)N)C(=O)N[C@@H](Cc1ccccc1)C(=O)N[C@@H](CCCCN)C(=O)N[C@@H](CCCCN)C(=O)N[C@H](C(=O)N[C@H](C(=O)N[C@@H](CCCCN)C(=O)N[C@@H](CCCCN)C(=O)N[C@@H](C)C(N)=O)C(C)C)C(C)C [RWKIFKKVVKKA]
MIC [14]: ≥ 32 µM | MIC [15]: 8 µM (≈ 12.2 µg/mL) | MIC [16]: 16 µM (≈ 24.5 µg/mL) | MIC [17]: 8 µM (≈ 12.2 µg/mL) | MIC [18]: 16 µM (≈ 24.5 µg/mL) | MIC [19]: 16 µM (≈ 24.5 µg/mL) | MIC [20]: 16 µM (≈ 24.5 µg/mL) | MIC [21]: 8 µM (≈ 12.2 µg/mL) | MIC [22]: 16 µM (≈ 24.5 µg/mL) | MIC [23]: 8 µM (≈ 12.2 µg/mL) | MIC [24]: 16 µM (≈ 24.5 µg/mL) | MIC [25]: 8 µM (≈ 12.2 µg/mL)

CC[C@H](C)[C@@H]1NC(=O)CNC(=O)[C@H](CCCN=C(N)N)NC(=O)[C@H](Cc2ccc(O)cc2)NC(=O)[C@@H]2CSSC[C@H](NC1=O)C(=O)N[C@@H](Cc1ccc(O)cc1)C(=O)N[C@@H](CCCN=C(N)N)C(=O)N[C@@H](CCCN=C(N)N)C(=O)N[C@H](C(=O)N[C@@H](CCCN=C(N)N)C(=O)O)CSSC[C@H](NC(=O)[C@H](Cc1c[nH]c3ccccc13)NC(=O)[C@@H](N)CCCCN)C(=O)N[C@@H](Cc1ccccc1)C(=O)N[C@@H](CCCN=C(N)N)C(=O)N[C@@H](C)C(=O)N2 [KWCFRACYRGICYRRCR]
MIC [1]: 0.112 µM (≈ 0.25 µg/mL) | MIC [26]: 0.446 µM (≈ 0.998 µg/mL) | MIC (Acinetobacter baumannii): 0.223 µM (≈ 0.499 µg/mL) | MIC [27]: 0.112 µM (≈ 0.25 µg/mL) | MIC (Klebsiella pneumoniae): 7.14 µM (≈ 16 µg/mL) | MIC [28]: 0.446 µM (≈ 0.998 µg/mL) | MIC [4]: 0.446 µM (≈ 0.998 µg/mL) | MIC [29]: 0.112 µM (≈ 0.25 µg/mL) | MIC (Pseudomonas aeruginosa): 0.893 µM (≈ 2 µg/mL) | MIC [30]: 1.79 µM (≈ 3.99 µg/mL) | MIC [31]: 0.446 µM (≈ 0.998 µg/mL) | MIC [32]: 3.57 µM (≈ 7.99 µg/mL) | MIC [33]: 0.112 µM (≈ 0.25 µg/mL)

CC[C@H](C)[C@H](NC(=O)[C@H](Cc1c[nH]c2ccccc12)NC(=O)[C@H](CCCN=C(N)N)NC(=O)[C@H](CCCCN)NC(=O)[C@H](C)NC(=O)[C@H](CC(C)C)NC(=O)[C@H](CCCN=C(N)N)NC(=O)[C@H](CC(=O)O)NC(=O)[C@@H](NC(=O)[C@H](CC(N)=O)NC(=O)[C@H](CCC(=O)O)NC(=O)[C@H](CCC(=O)O)NC(=O)[C@H](CO)NC(=O)[C@@H](NC(=O)[C@H](CC(N)=O)NC(=O)[C@H](CCCN=C(N)N)NC(=O)[C@H](C)N)C(C)C)C(C)C)C(=O)N[C@@H](CCCCN)C(=O)O [ARNVSEENVDRLAKRWIK]
MIC [34]: ≥ 68.7 µM

CC[C@H](C)[C@@H]1NC(=O)CNC(=O)[C@H](C)NC(=O)[C@H](Cc2ccc(O)cc2)NC(=O)[C@@H]2CSSC[C@H](NC1=O)C(=O)N[C@@H](Cc1ccc(O)cc1)C(=O)N[C@@H](CCCN=C(N)N)C(=O)N[C@@H](CCCN=C(N)N)C(=O)N[C@H](C(=O)N[C@@H](CCCN=C(N)N)C(=O)O)CSSC[C@H](NC(=O)[C@H](Cc1c[nH]c3ccccc13)NC(=O)[C@@H](N)CCCCN)C(=O)N[C@@H](Cc1ccccc1)C(=O)N[C@@H](CCCN=C(N)N)C(=O)N[C@@H](CCCN=C(N)N)C(=O)N2 [KWCFRRCYAGICYRRCR]
MIC [1]: 0.223 µM (≈ 0.499 µg/mL) | MIC [26]: 7.14 µM (≈ 16 µg/mL) | MIC (Acinetobacter baumannii): 7.14 µM (≈ 16 µg/mL) | MIC [27]: 0.112 µM (≈ 0.25 µg/mL) | MIC (Klebsiella pneumoniae): > 7.14 µM | MIC [28]: 1.79 µM (≈ 3.99 µg/mL) | MIC [4]: > 7.14 µM | MIC [29]: 7.14 µM (≈ 16 µg/mL) | MIC (Pseudomonas aeruginosa): > 7.14 µM | MIC [30]: > 7.14 µM | MIC [31]: 7.14 µM (≈ 16 µg/mL) | MIC [32]: 7.14 µM (≈ 16 µg/mL) | MIC [33]: 7.14 µM (≈ 16 µg/mL)
